# From patent US11649237B2, “Substituted imidazo[1,5-a]pyrazines for IRE1 inhibition” (Optikira LLC, priority 2017, dated 2023)
# Tested on: XBP-1 splicing in ARPE-19 cells or apoptosis of INS-1 cells expressing mIRE-1
# Assay: Cellular assay (XBP1 splicing assay or apoptosis assay)
# Type: cell-based
# Settings: data are for the XBP1 splicing assay or the apoptosis assay (not specified per compound)
# Description: ARPE-19 cells stably expressing XBP-1 (a.a. 1-376) with nano-luciferase gene sequence linked so it is in frame when XBP-1 is spliced, were cultured in F12 media, 10% FBS, 0.044% sodium bicarbonate, 150 μg/ml hygromycin B and seeded for assays at 5,000 cells in 384 well plates in culture media without hygromycin B and incubated at 37° C./5% CO2. […] After further incubation of 30 minutes thapsigargin was added (final concentration 150 nM) and then another 4 hour incubation. A NanoLuc luciferase assay (Promega) was used according to the manufacturer's instructions to detect the luciferase and luminescence measured on a luminometer (EnVision, PerkinElmer).
# Doxycycline (final concentration 100 nM) was added and plates incubated for a further 72 hours. To determine the proportion of apoptotic cells Hoechst 33342 (final concentration 10 μg/mL) was added, then after 30 minutes incubation cells imaged and analyzed on an InCell high content imager.
row,Structure (SMILES),IC50 [nM]
1,"CCc1nc(-c2ccc(NC(=O)Nc3cccc(C(F)(F)F)c3)c3ccccc23)c2c(N)ncc(CN3CCNCC3)n12 [Example 20, 3-{4-[8-amino-3-ethyl-5-(piperazin-1-ylmethyl)imidazo[1,5-a]pyrazin-1-yl]naphthalen-1-yl}-1-[3-(trifluoromethyl)phenyl]urea]",470
2,"CC(C)c1nc(-c2ccc(NS(=O)(=O)Cc3ccccc3Cl)c(F)c2)c2c(N)ncc(CN3CCNCC3)n12 [Example 36, N-(4-(8-amino-3-isopropyl-5-(piperazin-1-ylmethyl)imidazo[1,5-a]pyrazin-1-yl)-2-fluorophenyl)-1-(2-chlorophenyl)methanesulfonamide]",1530
3,"Cc1cccc2nc(Cc3ccc(-c4nc(C(C)C)n5c(CN6CCNCC6)cnc(N)c45)c4ccccc34)[nH]c12 [Example 37, 3-isopropyl-1-(4-((7-methyl-1H-benzo[d]imidazol-2-yl)methyl)naphthalen-1-yl)-5-(piperazin-1-ylmethyl)imidazo[1,5-a]pyrazin-8-amine]",320
4,"Cc1nc(-c2ccc(NC(=O)Nc3cccc(C(F)(F)F)c3)c3ccccc23)c2c(N)ncc(C3CCCNC3)n12 (stereo not drawn) [Example 40, 3-{4-[8-amino-3-methyl-5-(piperidin-3-yl)imidazo[1,5-a]pyrazin-1-yl]naphthalen-1-yl}-1-[3-(trifluoromethyl)phenyl]urea]",280
5,"CNC1CC=C(c2cnc(N)c3c(-c4ccc(CC(=O)Nc5cc(F)cc(C#N)c5)c5ccccc45)nc(C(C)C)n23)CC1 (stereo not drawn) [Example 67, 2-(4-(8-amino-3-isopropyl-5-(4-(methylamino)cyclohex-1-en-1-yl)imidazo[1,5-a]pyrazin-1-yl)naphthalen-1-yl)-N-(3-cyano-5-fluorophenyl)acetamide]",210
6,"CNC1CC=C(c2cnc(N)c3c(-c4ccc(CC(=O)Nc5ccccn5)c5ccccc45)nc(C(C)C)n23)CC1 (stereo not drawn) [Example 68, 2-(4-(8-amino-3-isopropyl-5-(4-(methylamino)cyclohex-1-en-1-yl)imidazo[1,5-a]pyrazin-1-yl)naphthalen-1-yl)-N-(pyridin-2-yl)acetamide]",430
7,"CNC1CC=C(c2cnc(N)c3c(-c4ccc(CC(=O)Nc5cncc(OC)c5)c5ccccc45)nc(C(C)C)n23)CC1 (stereo not drawn) [Example 69, 2-(4-(8-amino-3-isopropyl-5-(4-(methylamino)cyclohex-1-en-1-yl)imidazo[1,5-a]pyrazin-1-yl)naphthalen-1-yl)-N-(5-methoxypyridin-3-yl)acetamide]",350
8,"CNC1CC=C(c2cnc(N)c3c(-c4ccc(CC(=O)Nc5cccc(C#N)c5)c5ccccc45)nc(C(C)C)n23)CC1 (stereo not drawn) [Example 70, 2-(4-(8-amino-3-isopropyl-5-(4-(methylamino)cyclohex-1-en-1-yl)imidazo[1,5-a]pyrazin-1-yl)naphthalen-1-yl)-N-(3-cyanophenyl)acetamide]",140
9,"CNC1CC=C(c2cnc(N)c3c(-c4ccc(CC(=O)Nc5cccc(OC)c5)c5ccccc45)nc(C(C)C)n23)CC1 (stereo not drawn) [Example 71, 2-(4-(8-amino-3-isopropyl-5-(4-(methylamino)cyclohex-1-en-1-yl)imidazo[1,5-a]pyrazin-1-yl)naphthalen-1-yl)-N-(3-methoxyphenyl)acetamide]",62
10,"CNC1CC=C(c2cnc(N)c3c(-c4cccc5c(CC(=O)Nc6cccc(F)c6)cccc45)nc(C(C)C)n23)CC1 (stereo not drawn) [Example 81, 2-(5-(8-amino-3-isopropyl-5-(4-(methylamino)cyclohex-1-en-1-yl)imidazo[1,5-a]pyrazin-1-yl)naphthalen-1-yl)-N-(3-fluorophenyl)acetamide]",290
11,"CNC1CC=C(c2cnc(N)c3c(-c4cccc5c(CC(=O)Nc6ccccc6)cccc45)nc(C(C)C)n23)CC1 (stereo not drawn) [Example 82, 2-(5-(8-amino-3-isopropyl-5-(4-(methylamino)cyclohex-1-en-1-yl)imidazo[1,5-a]pyrazin-1-yl)naphthalen-1-yl)-N-phenylacetamide]",400
12,"CNC1CC=C(c2cnc(N)c3c(-c4ccc(NC(=O)Nc5ccccc5)c5ccccc45)nc(C(C)C)n23)CC1 (stereo not drawn) [Example 121, 1-(4-(8-Amino-3-isopropyl-5-(4-(methylamino)cyclohex-1-en-1-yl)imidazo[1,5-a]pyrazin-1-yl)naphthalen-1-yl)-3-phenylurea]",89
13,"CNC1CC=C(c2cnc(N)c3c(-c4cccc5c(NC(=O)Nc6cccc(F)c6)cccc45)nc(C(C)C)n23)CC1 (stereo not drawn) [Example 123, 1-(5-(8-amino-3-isopropyl-5-(4-(methylamino)cyclohex-1-en-1-yl)imidazo[1,5-a]pyrazin-1-yl)naphthalen-1-yl)-3-(3-fluorophenyl)urea]",230
14,"CNC1CC=C(c2cnc(N)c3c(-c4cccc5c(NC(=O)Nc6cccc(C(F)(F)F)c6)cccc45)nc(C(C)C)n23)CC1 (stereo not drawn) [Example 124, 1-(5-(8-amino-3-isopropyl-5-(4-(methylamino)cyclohex-1-en-1-yl)imidazo[1,5-a]pyrazin-1-yl)naphthalen-1-yl)-3-(3-(trifluoromethyl)phenyl)urea]",430
15,"CNC1CC=C(c2cnc(N)c3c(-c4ccc(NC(=O)Nc5ccc6c(c5)OCCO6)cc4F)nc(C(C)C)n23)CC1 (stereo not drawn) [Example 125, 1-(4-(8-amino-3-isopropyl-5-(4-(methylamino)cyclohex-1-en-1-yl)imidazo[1,5-a]pyrazin-1-yl)-3-fluorophenyl)-3-(2,3-dihydrobenzo[b][1,4]dioxin-6-yl)urea]",300
16,"CCc1nc(-c2ccc(NC(=O)Nc3cccc(F)c3)cc2F)c2c(N)ncc(C3=CCC(NC)CC3)n12 (stereo not drawn) [Example 126, 1-(4-(8-amino-3-ethyl-5-(4-(methylamino)cyclohex-1-en-1-yl)imidazo[1,5-a]pyrazin-1-yl)-3-fluorophenyl)-3-(3-fluorophenyl)urea]",450
17,"CNC1CC=C(c2cnc(N)c3c(-c4ccc(NC(=O)Nc5cccc(F)c5)cc4F)nc(C(C)C)n23)CC1 (stereo not drawn) [Example 129, 1-(4-(8-amino-3-isopropyl-5-(4-(methylamino)cyclohex-1-en-1-yl)imidazo[1,5-a]pyrazin-1-yl)-3-fluorophenyl)-3-(3-fluorophenyl)urea]",280
18,"CNC1CC=C(c2cnc(N)c3c(-c4ccc(NC(=O)Nc5ccccc5)cc4F)nc(C(C)C)n23)CC1 (stereo not drawn) [Example 130, 1-(4-(8-amino-3-isopropyl-5-(4-(methylamino)cyclohex-1-en-1-yl)imidazo[1,5-a]pyrazin-1-yl)-3-fluorophenyl)-3-phenylurea]",410
19,"CNC1CC=C(c2cnc(N)c3c(-c4ccc(NC(=O)NCc5ccccc5)c5ccccc45)nc(C(C)C)n23)CC1 (stereo not drawn) [Example 139, 1-(4-(8-amino-3-isopropyl-5-(4-(methylamino)cyclohex-1-en-1-yl)imidazo[1,5-a]pyrazin-1-yl)naphthalen-1-yl)-3-benzylurea]",380
20,"CNC1CC=C(c2cnc(N)c3c(-c4ccc(NC(=O)Nc5ccc6c(c5)OCCO6)c5ccccc45)nc(C(C)C)n23)CC1 (stereo not drawn) [Example 140, 1-(4-(8-amino-3-isopropyl-5-(4-(methylamino)cyclohex-1-en-1-yl)imidazo[1,5-a]pyrazin-1-yl)naphthalen-1-yl)-3-(2,3-dihydrobenzo[b][1,4]dioxin-6-yl)urea]",78
21,"CNC1CC=C(c2cnc(N)c3c(-c4ccc(NC(=O)Nc5cccc(OC)c5)c5ccccc45)nc(C(C)C)n23)CC1 (stereo not drawn) [Example 141, 1-(4-(8-amino-3-isopropyl-5-(4-(methylamino)cyclohex-1-en-1-yl)imidazo[1,5-a]pyrazin-1-yl)naphthalen-1-yl)-3-(3-methoxyphenyl)urea]",59
